Experiments:
acid ceramidase (AC) = target: T1, acid ceramidase (AC) (Homo sapiens, UniProt Q13510); test: Acid ceramidase HTS assay, 384-well fluorogenic (RBM14-C12), cell lysates; type: biochemical; details: for IC50: dose-titration, 8-point two-fold dilution from 200 micromolar, 95% confidence interval in brackets, means of three replicates; for inhibition at 20 µM: primary assay, single-point concentration of 20 μM, lysates of AC-overexpressing A375 melanoma cells, substrate RBM14-C12 20 µM, pH 4.5
T1 construct: expressed in transfected cells
T1 sequence (Q13510 22-395): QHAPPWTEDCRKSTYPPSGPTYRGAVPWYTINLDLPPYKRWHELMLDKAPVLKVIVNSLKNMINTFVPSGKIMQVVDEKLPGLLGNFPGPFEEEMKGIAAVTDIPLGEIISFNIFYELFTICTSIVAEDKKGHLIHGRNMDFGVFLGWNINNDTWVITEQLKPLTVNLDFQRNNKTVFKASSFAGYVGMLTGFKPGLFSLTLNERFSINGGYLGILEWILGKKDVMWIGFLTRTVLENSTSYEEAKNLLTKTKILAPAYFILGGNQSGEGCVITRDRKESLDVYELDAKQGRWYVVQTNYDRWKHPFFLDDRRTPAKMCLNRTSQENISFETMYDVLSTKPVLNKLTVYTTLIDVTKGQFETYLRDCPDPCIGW
Experimental: To start with, the final reaction volume was adapted from 100 µL (96-well-format) to 32 µL (384 well-format) with a final concentration of substrate of 20 µM. Next, protein concentration was adjusted using cell lysates of AC-overexpressing A375 melanoma cells. Ideally, the optimal amount of protein is the one that ensures reaction linearity over a period of time together with less than 10% of substrate depletion, in order to assume that the enzyme operates at steady-state conditions. Thus, different amounts of cell lysates were mixed with the substrate and product formation was measured over 1 h. […] Finally, an amount of 0.4 µg of protein was chosen, as higher amounts of proteins were not in the linear portion whereas lower amounts would compromise the signal window. The optimal incubation time of the reaction mixture was next explored. […] As a first validation step, we performed a control run consisting of 60 wells representing AC activity and 60 wells representing the signal in absence of the enzyme. […] The calculated coefficients of variation (CV) for both the high and low controls were 6.08% and 17.1% respectively.
After having successfully established the optimal reaction conditions in a 384-well format, we employed this newly miniaturised AC assay in a pilot screen against a library of 4100 compounds. The screen was carried out at a single dose of 20 µM for each library compound in 6% DMSO (v/v) and in duplicate. The acid ceramidase inhibitor SOCLAC was used as a pharmacological control for the assay. The Z’-factor per plate were consistent with those obtained during the initial validation. […] An example hit map from one screening plate is shown (Figure 2(C)). The inhibitory activity of these hits was then validated in an additional assay performed at a single-point concentration in triplicates.
To confirm the results from the primary screening, top hits were cherry-picked and tested in a concentration-dependent response assay with triplicates per sample. Thus, 101 compounds were then subjected to 8-points two-fold dilution series starting at a maximum concentration of 200 micromolar.
(§1) The A375 cell line stably overexpressing ASAH1 under the control of a tetracycline/doxycycline-responsive promoter was kindly provided by Dr. Carmen Bedia and Prof. Thierry Levade[17]. The antibiotic selection of this cell line was performed with blasticidin (3 µg/mL) and hygromycin B (250 µg/mL). Ectopic expression of AC was induced with doxycycline at 1 µg/mL for 24 h before use. Cells were suspended in the appropriate volume of a 0.25 M saccharose solution with the proteases inhibitors aprotinin (1 mg/mL), leupeptin (1 mg/mmL) and PMSF (100 mM). The suspension was submitted to three cycles of a 5 s sonication (probe) at 10 watts/5 s resting on ice. The cell lysate was centrifuged at 600 g for 5 min. The supernatant was collected and protein concentration was determined with BSA as a standard using the bicinchoninic acid (BCA) protein determination kit (Thermo Scientific) according to the manufacturer’s instructions.
A previously described 96-well plate assay[25] was miniaturised into a 384-well plate format with a final reaction volume of 32 µL. Plated compounds were diluted with a mixture of DMSO/H2O (1.6 µL/18 µL), and after centrifugation, 3.2 µL were dispensed into a new 384-well plate, so that the final concentration of the compound in the final reaction volume of 32 µL was 20 µM and the DMSO content of the assay was 1%. Next, 20.8 µL of a substrate solution of RBM14-C12 in sodium acetate buffer (25 mM, pH 4.5) was added for a final concentration of 20 µM, followed by the addition of 8 µL of a 0.25 M sucrose solution of cell lysates from AC-overexpressing A375 melanoma cells containing 0.4 µg of protein The reaction was terminated after 60 min incubation at 37 °C by adding 8 µL of methanol. Oxidation was performed by treatment with 32 µL of a [2.5 mg/mL] solution of NaIO4 in 100 mM glycine-NaOH buffer (pH 10.6). […]

[1] = target: T2, recombinant human NC (rhNC) (Homo sapiens, UniProt Q9NR71); test: Neutral ceramidase assay, fluorogenic substrate RBM14-C24:1; type: biochemical; details: single-point concentration of 50 μM; means of three replicates
T2 construct: purchased R&D Systems
Experimental: As mentioned above, hydrolysis of ceramides occurs by the action of ceramidases which are encoded by five known genes and are distinguished by the pH required for optimal activity. A common problem with AC inhibitors, especially those one with a scaffold related to the structure of ceramide, is the lack of selectivity over other ceramidases. Thus, to discard a selectivity issue, the activity of nine detected hits against neutral ceramidase was next explored at 50 µM. Activity over NC was tested using recombinant human NC (rhNC) and a specific NC substrate bearing a nervonic acid amide (RBM14-C24:1)[30]. Remarkably, none of the molecules elicited a significant inhibitory activity, thereby confirming the selective inhibition of AC over NC (Supplemental Table 1).
The NC assay was performed in 96-well plates at a final volume of 100 µL/well. Reaction buffers was 25 mM phosphate buffer 150 mM NaCl 1% (NaChol) pH 7.4. The reaction mixtures contained 25 µL/well of protein (5 ng recombinant NC R&D Systems, >95% pure), 70 µL/well of substrate (prepared from 4 mM stock solutions in ethanol) and 5 µL/well of inhibitor (prepared from 1 mM stock solutions in DMSO/H2O). Reaction mixtures were incubated at 37 °C for 1 h and reactions were stopped with 25 µL/well of MeOH followed by 100 µL/well of NaIO4 (2.5 mg/mL in 100 mM glycine-NaOH buffer, pH 10.6). After incubation at 37 °C for 1 h in the dark, 100 µL/well of 100 mM glycine-NaOH buffer (pH 10.6) was added and fluorescence was measured spectrophotometrically at excitation and emission wavelenght of 355 and 460 nm, respectively. The same reaction mixtures without enzymes were used as blanks.

[2] = target: T3, acid ceramidase in AC overexpressing A375 cells (Homo sapiens, UniProt Q13510); test: Fluorogenic ceramidase activity assay in intact cells (RBM14-C12); type: cell-based; details: for inhibition at 20 µM: A-375, single-point concentration of 20 µM, 3 h, triplicate
T3 construct: expressed in transfected cells
T3 sequence (Q13510 22-395): T1 sequence (Q13510 22-395)
Experimental: Cell-based assays allow evaluating biological activity in a more physiologically relevant system that also considers additional factors that might have a positive impact on inhibitory potency such as permeabilization through cellular membranes, metabolisation or concentration by intracellular compartmentalisation. Thus, the activity of the nine selected hits was next examined in intact cells using AC overexpressing A375 cells and the fluorogenic substrate RBM14-C12. First, compounds were tested in a primary screening assay. Measurements were performed in triplicated at a single-point concentration of 20 µM.
as §1
To determine activity in intact cells, 2 × 10^4 cells/well were seeded in 96-well plates 24 h prior to the assay and maintained at 37 °C and 5% CO2. Overexpression of AC was induced with doxycycline at 1 µg/mL for 24 h. […] After incubation at 37 °C for 1 h in the dark, 100 µL/well of 100 mM glycine-NaOH buffer (pH 10.6) were added and fluorescence was measured spectrophotometrically at excitation and emission wavelengths of 355 and 460 nm, respectively. […]

T2 sequence (Q9NR71 whole entry): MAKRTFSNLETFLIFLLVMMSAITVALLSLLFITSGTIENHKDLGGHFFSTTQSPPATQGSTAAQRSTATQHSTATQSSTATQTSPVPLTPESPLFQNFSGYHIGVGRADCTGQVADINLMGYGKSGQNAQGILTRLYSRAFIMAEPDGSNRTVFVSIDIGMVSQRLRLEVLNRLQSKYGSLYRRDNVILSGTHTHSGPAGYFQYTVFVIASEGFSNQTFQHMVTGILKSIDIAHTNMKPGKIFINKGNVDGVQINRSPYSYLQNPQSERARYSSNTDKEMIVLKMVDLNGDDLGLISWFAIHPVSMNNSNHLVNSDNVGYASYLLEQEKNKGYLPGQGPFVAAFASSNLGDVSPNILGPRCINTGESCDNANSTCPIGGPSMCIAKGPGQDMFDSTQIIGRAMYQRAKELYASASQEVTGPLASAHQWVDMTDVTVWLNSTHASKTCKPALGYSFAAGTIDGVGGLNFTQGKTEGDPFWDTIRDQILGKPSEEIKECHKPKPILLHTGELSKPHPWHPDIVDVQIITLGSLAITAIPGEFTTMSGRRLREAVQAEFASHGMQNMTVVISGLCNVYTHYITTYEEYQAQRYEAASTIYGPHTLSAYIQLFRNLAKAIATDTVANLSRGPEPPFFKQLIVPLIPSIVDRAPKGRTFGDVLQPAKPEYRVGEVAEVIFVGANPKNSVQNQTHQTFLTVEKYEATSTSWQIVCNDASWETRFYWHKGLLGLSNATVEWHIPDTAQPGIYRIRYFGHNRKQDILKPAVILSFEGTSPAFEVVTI

Row | IC50 (acid ceramidase (AC)) | inhibition at 20 µM (acid ceramidase (AC)) | inhibition at 50 µM [1] | inhibition at 20 µM [2] | IC50 ([2]; interval (24.3–44.7) printed, read-out: IC50 in the cell-based assay) | SMILES
1 | 11.1 µM | 61.4% | -8.9% | 32% |  | Cc1cc(O[C@H](c2ccc(C(=O)NC[C@H](O)C(=O)O)s2)C(C)C)cc(C)c1-c1ccc(C(F)(F)F)cc1 [W000113414_H19]
2 | 10.6 µM | 75.5% | -5.9% | 53% | 32 µM | CN(CCc1ccccn1)S(=O)(=O)c1cccc(Br)c1 [W000113402_C12]
3 |  | 67.4% | 22.9% |  |  | CCC(CC)(c1ccc(OCC2(C(C)(C)C)OCCO2)c(C)c1)c1cc(C)c2oc(C(=O)NCC(=O)O)cc2c1 [W000113414_I13]
4 | 36.7 µM | 60.4% | -1.3% |  |  | CCCCc1ccc(C(=O)CCC2C(=O)c3ccccc3C2=O)cc1 [W000113414_D15]
5 | 10.6 µM | 63.4% | 23.4% |  |  | C=CCNC(=S)Nc1ccc(Cl)c([N+](=O)[O-])c1 [W000113403_I18]
6 | 23.9 µM | 59.2% | 20.8% |  |  | Cc1ccc(CN2CC(C(=O)N(C)Cc3ccc(Cl)c(Cl)c3)CC2=O)cc1 (centres unmarked) [W000113407_J11]
7 | 7.9 µM | 53.8% | 8.5% |  |  | CC1CCCCN1C(=O)Nc1ccc(Oc2ccccc2)cc1 (centres unmarked) [W000113402_O07]
8 | 15.8 µM | 41.7% | 35.6% |  |  | CC(OC(=O)c1c2c(nc3ccccc13)/C(=C/c1cccs1)CC(C(C)(C)C)C2)C(=O)Nc1ccc(C(N)=O)cc1 (centres unmarked) [W000113400_H06]
9 | 48.9 µM | 59% | -4.1% |  |  | CC(C)(C)CC(=O)N1CCN(c2cccc(C(F)(F)F)c2)CC1 [W000113414_C16]
